The target in experiment [1] is complement component C3b. The note with it: Isenman, 1983; read-out: Kd of ANS binding to complement component C3b; cited from earlier work.
Experiment [2] concerns the target apohemoglobin. To be noted: Stryer, 1965; read-out: Kd of ANS binding to apohemoglobin; cited from earlier work.
In experiment [3] the target is T1, u-PAR (Homo sapiens, UniProt Q03405).
T1 construct: made in house; host or cells: Chinese hamster ovary (CHO) cells, conditioned media
The experiment is described as follows: fluorescence titration of u-PAR with ANS (Scatchard). In kind it is binding. To be noted: intact u-PAR. On the procedure: ANS titration. The stoichiometry and affinity of ANS binding to u-PAR was determined by titrating fixed concentrations of u-PAR with ANS up to a concentration of 100 μM. The observed fluorescence intensities were corrected for the dilution effect of the added ANS, the low background fluorescence of ANS in buffer and for the inner filter effect of the varying concentration of ANS. The latter was performed using the relationship
where ε386 is the molar extinction coefficient of ANS at half the path length of the fluorescence cuvette, ANSo is the total ANS concentration, and Fobs and Fcorr are the observed and corrected fluorescence intensities. The concentration of bound ANS was determined from the relationship
where Fmax is the theoretical fluorescence of a molar solution if all were bound to u-PAR. This parameter was calculated by titration of a protein concentration sufficiently high to ensure that essentially all added ANS is bound in the initial linear part of the binding curve. The data generated in this way were analyzed by the method of Scatchard.

Experiment [4] deals with T1, u-PAR. The experiment is described as follows: protease cleavage of u-PAR monitored by ANS fluorescence. It is filed as biochemical. On the procedure:
Fluorescence measurements. […] All fluorescence measurements were made using 2 μM u-PAR and 10 μM ANS in PBS at 25° C. unless otherwise stated.

The values that follow come from patent US6025142A, “Hydrophobic u-PAR binding site” (Boehringer Mannheim GmbH, priority 1994, dated 2000).

Where only a bound is given, the exact number is not on record here.

T1 sequence (Q03405 23-299): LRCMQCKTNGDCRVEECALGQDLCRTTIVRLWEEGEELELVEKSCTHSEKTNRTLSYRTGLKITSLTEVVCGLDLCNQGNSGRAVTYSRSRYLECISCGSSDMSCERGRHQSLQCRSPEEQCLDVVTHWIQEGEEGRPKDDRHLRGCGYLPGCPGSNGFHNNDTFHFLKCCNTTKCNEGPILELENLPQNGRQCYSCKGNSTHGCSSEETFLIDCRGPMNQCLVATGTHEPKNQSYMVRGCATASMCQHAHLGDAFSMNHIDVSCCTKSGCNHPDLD

Turning to `O=S(=O)(O)c1cccc2cccc(Nc3ccccc3)c12` [ANS, 8-anilino-1-naphthalene sulfonic acid], the Kd in experiment [1] was 40 µM; in experiment [2], 55 µM; in experiment [3] (PBS, 25° C., read-out: dissociation constant of ANS binding to u-PAR), 33.8 ± 3.2 µM. Also, the “enhancement of ANS fluorescence intensity on binding to u-PAR” value in experiment [3] is on record as more than 10 fold. In addition, in experiment [3], the “stoichiometry of ANS binding” value came to 1.09±0.17 moles/mole u-PAR.

On to chymotrypsin, for which, in experiment [4], the “reduction in the ANS fluorescence after cleavage of intact u-PAR” value is on record as 75%.
